Here are results for twelve molecules from US12129246B1, “Hydroquinazoline derivatives for the treatment of a disease or disorder” (Novartis AG, priority 2023, dated 2024).

Where two headings read alike, the source gives them in different places.

What is called AC50 is the concentration at which the activity in the assay is half-maximal.

One experiment deals with monkey NPR1 (Macaca fascicularis, UniProt A0A7N9DBT9). The experiment in a line: Cellular cGMP production assay, monkey NPR1 expressing CHO-K1 cells (CisBio HTRF). The conditions noted are these: for Monkey NPR1 Amax (% of ANP): maximum cGMP production as percentage of the maximum cGMP produced with ANP. Format: cell-based. The gist of the method:
(§1)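 Cells receive IBMX (1 mM) assay buffer plus test compound over twelve threefold dilutions starting at 30 μM, and cGMP accumulates for 30 min at 37 °C. Lysates are then incubated one hour at room temperature with d2-labelled cGMP and cryptate-labelled antibody before time-resolved fluorescence reading.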

For the next experiment, the target named is T1, human NPR1 (Homo sapiens, UniProt P16066).
T1 construct: host or cells: CHO-K1
T1 sequence (P16066 33-1061): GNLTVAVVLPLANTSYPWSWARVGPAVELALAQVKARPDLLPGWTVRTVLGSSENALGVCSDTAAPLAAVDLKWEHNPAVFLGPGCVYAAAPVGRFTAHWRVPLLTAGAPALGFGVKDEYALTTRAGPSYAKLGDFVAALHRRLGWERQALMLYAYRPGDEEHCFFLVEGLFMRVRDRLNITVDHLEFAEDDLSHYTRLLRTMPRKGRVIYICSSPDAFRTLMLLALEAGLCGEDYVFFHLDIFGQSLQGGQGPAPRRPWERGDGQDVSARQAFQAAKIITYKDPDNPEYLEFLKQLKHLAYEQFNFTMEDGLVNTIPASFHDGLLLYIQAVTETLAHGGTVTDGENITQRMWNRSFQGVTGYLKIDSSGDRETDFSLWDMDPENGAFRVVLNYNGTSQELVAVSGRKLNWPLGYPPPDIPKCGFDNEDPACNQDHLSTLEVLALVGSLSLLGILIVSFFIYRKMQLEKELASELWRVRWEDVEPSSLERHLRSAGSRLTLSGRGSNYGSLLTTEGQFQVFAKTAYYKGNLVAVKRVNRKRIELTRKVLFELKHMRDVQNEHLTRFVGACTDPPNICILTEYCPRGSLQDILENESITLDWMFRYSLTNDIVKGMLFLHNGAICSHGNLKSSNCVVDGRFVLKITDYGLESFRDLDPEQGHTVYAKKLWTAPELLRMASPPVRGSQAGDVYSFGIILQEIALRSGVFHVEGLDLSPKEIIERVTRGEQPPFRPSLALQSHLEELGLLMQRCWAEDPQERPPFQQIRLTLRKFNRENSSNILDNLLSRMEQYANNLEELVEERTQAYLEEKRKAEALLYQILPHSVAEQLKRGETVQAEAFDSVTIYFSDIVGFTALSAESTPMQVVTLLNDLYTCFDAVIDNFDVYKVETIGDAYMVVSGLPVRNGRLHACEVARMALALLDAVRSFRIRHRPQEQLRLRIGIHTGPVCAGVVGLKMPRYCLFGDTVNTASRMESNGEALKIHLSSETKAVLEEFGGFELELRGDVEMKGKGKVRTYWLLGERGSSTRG
The experiment in a line: Cellular cGMP production assay, human NPR1 expressing CHO-K1 cells (CisBio HTRF). Type of experiment: cell-based. The note with it: for AC50: cGMP production, 30 min at 37° C., 12-point dose-response from 30 μM; for Human NPR1 Amax (% of ANP): maximum cGMP production as percentage of the maximum cGMP produced with ANP. Put shortly:
as §1
For orientation: Time-resolved FRET reads energy transfer from a long-lived donor to a nearby acceptor.

[1] abbreviates: cGMP production, monkey NPR1 CHO-K1 cells, 30 min at 37° C., 12-point dose-response from 30 μM, read-out: Monkey NPR1 AC50.

Chain of monkey NPR1 (A0A7N9DBT9 entry or part of it): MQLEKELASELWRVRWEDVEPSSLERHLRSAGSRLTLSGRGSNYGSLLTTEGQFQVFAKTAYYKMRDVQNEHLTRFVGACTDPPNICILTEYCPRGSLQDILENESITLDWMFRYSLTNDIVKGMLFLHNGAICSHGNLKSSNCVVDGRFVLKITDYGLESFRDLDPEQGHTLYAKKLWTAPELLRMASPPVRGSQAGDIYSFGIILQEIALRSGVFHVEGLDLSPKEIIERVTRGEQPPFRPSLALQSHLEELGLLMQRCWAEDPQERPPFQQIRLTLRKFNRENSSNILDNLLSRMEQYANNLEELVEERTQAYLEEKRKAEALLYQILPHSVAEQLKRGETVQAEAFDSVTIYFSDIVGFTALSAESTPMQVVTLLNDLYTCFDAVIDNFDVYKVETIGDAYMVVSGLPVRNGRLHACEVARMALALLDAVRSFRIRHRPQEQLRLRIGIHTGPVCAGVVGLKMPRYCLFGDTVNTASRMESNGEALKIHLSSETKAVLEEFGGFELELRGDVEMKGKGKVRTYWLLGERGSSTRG

For `CC[C@H]([C@H]1CC[C@H](C(=O)O)CC1)N(C)c1nc2c(c(N[C@@H](CN3CCCCC3)c3cnn(C)c3)n1)C[C@H](c1ccccc1)CC2` [Compound 118, (1R,4r)-4-((R)-1-(methyl((R)-4-(((R)-1-(1-methyl-1H-pyrazol-4-yl)-2-(piperidin-1-yl)ethyl)amino)-6-phenyl-5,6,7,8-tetrahydroquinazolin-2-yl)amino)propyl)cyclohexane-1-carboxylic acid], the half-maximal activity concentration (AC50) was 0.4 µM at monkey NPR1 (setting [1]) and 0.54 µM on human NPR1. The “Monkey NPR1 Amax (% of ANP)” value on monkey NPR1 (monkey NPR1 CHO-K1 cells) is on record as 99.466 % of ANP. Besides, at human NPR1, the “Human NPR1 Amax (% of ANP)” value was 94.446 % of ANP.

Turning to `CC[C@@H](N(C)c1nc2c(c(N[C@@H](CN3CCC[C@H](C)C3)c3cnn(CC)c3)n1)C[C@H](c1cccc(F)c1)CC2)C12CC(C(=O)O)(C1)C2` [Compound 13, 3-((R)-1-(((R)-4-(((R)-1-(1-ethyl-1H-pyrazol-4-yl)-2-((S)-3-methylpiperidin-1-yl)ethyl)amino)-6-(3-fluorophenyl)-5,6,7,8-tetrahydroquinazolin-2-yl)(methyl)amino)propyl)bicyclo[1.1.1]pentane-1-carboxylic acid], the AC50 on monkey NPR1 (setting [1]) was 0.064 µM. For the same molecule, the “Monkey NPR1 Amax (% of ANP)” value at monkey NPR1 (monkey NPR1 CHO-K1 cells) is 100.145 % of ANP. For the same molecule, on human NPR1, the AC50 is 0.094 µM and the “Human NPR1 Amax (% of ANP)” value is listed as 99.405 % of ANP.

Take `CC[C@H]([C@H]1CC[C@H](C(=O)O)CC1)N(C)c1nc2c(c(N[C@@H](CN3CCC[C@H](C)C3)c3cnn(C)c3)n1)C[C@@H](c1ccccc1F)CC2` [Compound 141, (1R,4r)-4-((R)-1-(((S)-6-(2-fluorophenyl)-4-(((R)-1-(1-methyl-1H-pyrazol-4-yl)-2-((S)-3-methylpiperidin-1-yl)ethyl)amino)-5,6,7,8-tetrahydroquinazolin-2-yl)(methyl)amino)propyl)cyclohexane-1-carboxylic acid]: the results for the half-maximal activity concentration (AC50) at monkey NPR1 (setting [1]) and on human NPR1 were 0.731 µM and 0.888 µM, respectively. Further, the “Monkey NPR1 Amax (% of ANP)” value at monkey NPR1 (monkey NPR1 CHO-K1 cells) is given as 105.798 % of ANP. Further, the “Human NPR1 Amax (% of ANP)” value at human NPR1 is 102.728 % of ANP.

`CC(C)n1cc([C@H](CN2CCCCC2)Nc2nc(N[C@H](C)c3ccc(C(=O)O)cc3)nc3c2C[C@H](c2ccccc2)CC3)cn1` [Compound 171, 4-((R)-1-(((R)-4-(((R)-1-(1-isopropyl-1H-pyrazol-4-yl)-2-(piperidin-1-yl)ethyl)amino)-6-phenyl-5,6,7,8-tetrahydroquinazolin-2-yl)amino)ethyl)benzoic acid]: the half-maximal activity concentration (AC50) at monkey NPR1 (setting [1]) is 2.32 µM. The “Monkey NPR1 Amax (% of ANP)” value on monkey NPR1 (monkey NPR1 CHO-K1 cells) is on record as 83.963 % of ANP. Moreover, on human NPR1, half-maximal activity (AC50) was put at 2.77 µM and the “Human NPR1 Amax (% of ANP)” value is 96.419 % of ANP.

Consider `CC[C@H]([C@H]1CC[C@H](C(=O)O)CC1)N(C)c1nc2c(c(N[C@@H](CN3CCC[C@H](C)C3)c3cnn(C)c3)n1)C[C@H](c1ccccc1F)CC2` [Compound 48, (1R,4r)-4-((R)-1-(((R)-6-(2-fluorophenyl)-4-(((R)-1-(1-methyl-1H-pyrazol-4-yl)-2-((S)-3-methylpiperidin-1-yl)ethyl)amino)-5,6,7,8-tetrahydroquinazolin-2-yl)(methyl)amino)propyl)cyclohexane-1-carboxylic acid], for which the AC50 on monkey NPR1 (setting [1]) came to 0.101 µM. Moreover, the “Monkey NPR1 Amax (% of ANP)” value on monkey NPR1 (monkey NPR1 CHO-K1 cells) is given as 101.062 % of ANP. Also, at human NPR1, the AC50 came to 0.183 µM and the “Human NPR1 Amax (% of ANP)” value is 106.036 % of ANP.

Molecule `CC[C@H]([C@H]1CC[C@H](C(=O)O)CC1)N(C)c1nc2c(c(N[C@@H](CN3C4CCCC3COC4)c3cnn(C)c3)n1)C[C@H](c1ccccc1)CC2` [Compound 169, (1R,4r)-4-((R)-1-(((R)-4-(((R)-2-((1R,5S)-3-oxa-9-azabicyclo[3.3.1]nonan-9-yl)-1-(1-methyl-1H-pyrazol-4-yl)ethyl)amino)-6-phenyl-5,6,7,8-tetrahydroquinazolin-2-yl)(methyl)amino)propyl)cyclohexane-1-carboxylic acid] showed an AC50 at monkey NPR1 of 1.92 µM. In addition, the “Monkey NPR1 Amax (% of ANP)” value at monkey NPR1 (monkey NPR1 CHO-K1 cells) is reported as 96.574 % of ANP. Further, on human NPR1, the activity was half-maximal at 2.67 µM (AC50) and the “Human NPR1 Amax (% of ANP)” value is on record as 67.375 % of ANP.

As to `CC[C@@H](N(C)c1nc2c(c(N[C@@H](CN3CCC[C@H](C)C3)c3cnn(C)c3)n1)C[C@H](c1cccc(F)c1)CC2)C12CC(C(=O)O)(C1)C2` [Compound 9, 3-((R)-1-(((R)-6-(3-fluorophenyl)-4-(((R)-1-(1-methyl-1H-pyrazol-4-yl)-2-((S)-3-methylpiperidin-1-yl)ethyl)amino)-5,6,7,8-tetrahydroquinazolin-2-yl)(methyl)amino)propyl)bicyclo[1.1.1]pentane-1-carboxylic acid], on monkey NPR1 (setting [1]), the AC50 came to 0.045 µM. The “Monkey NPR1 Amax (% of ANP)” value at monkey NPR1 (monkey NPR1 CHO-K1 cells) is given as 95.667 % of ANP. Also, at human NPR1, the activity was half-maximal at 0.088 µM (AC50) and the “Human NPR1 Amax (% of ANP)” value is given as 95.056 % of ANP.

`CC[C@@H](N(C)c1nc2c(c(N[C@@H](CN3CCC[C@H](C)C3)c3cnn(C)c3)n1)C[C@](C)(c1ccccc1)CC2)C12CC(C(=O)O)(C1)C2` [Compound 8, 3-((R)-1-(methyl((R)-6-methyl-4-(((R)-1-(1-methyl-1H-pyrazol-4-yl)-2-((S)-3-methylpiperidin-1-yl)ethyl)amino)-6-phenyl-5,6,7,8-tetrahydroquinazolin-2-yl)amino)propyl)bicyclo[1.1.1]pentane-1-carboxylic acid]: the half-maximal activity concentration (AC50) at monkey NPR1 (setting [1]) was 0.077 µM. The “Monkey NPR1 Amax (% of ANP)” value at monkey NPR1 (monkey NPR1 CHO-K1 cells) is reported as 101.778 % of ANP. At human NPR1, half-maximal activity (AC50) was put at 0.087 µM and the “Human NPR1 Amax (% of ANP)” value is given as 92.409 % of ANP.

Regarding `CC[C@@H](Nc1nc2c(c(N[C@@H](CN3CCC(C)CC3)c3cnn(C)c3)n1)C[C@H](c1ccccc1)CC2)[C@H]1CC[C@H](C(=O)O)CC1` [Compound 121, (1R,4r)-4-((R)-1-(((R)-4-(((R)-1-(1-methyl-1H-pyrazol-4-yl)-2-(4-methylpiperidin-1-yl)ethyl)amino)-6-phenyl-5,6,7,8-tetrahydroquinazolin-2-yl)amino)propyl)cyclohexane-1-carboxylic acid], the concentration at half-maximal activity (AC50) at monkey NPR1 (setting [1]) stood at 0.382 µM; on human NPR1 it was 0.57 µM. Also, the “Monkey NPR1 Amax (% of ANP)” value at monkey NPR1 (monkey NPR1 CHO-K1 cells) is 102.117 % of ANP. Further, the “Human NPR1 Amax (% of ANP)” value at human NPR1 is recorded as 100.330 % of ANP.

Turning to `CC[C@@H](Nc1nc2c(c(N[C@@H](CN3CCCCC3)c3cnn(C)c3)n1)CN(c1cccc(F)c1)CC2)[C@H]1CC[C@H](C(=O)O)CC1` [Compound 55], the AC50 at monkey NPR1 (setting [1]) came to 0.142 µM. The “Monkey NPR1 Amax (% of ANP)” value at monkey NPR1 (monkey NPR1 CHO-K1 cells) is 93.391 % of ANP. In addition, on human NPR1, the activity was half-maximal at 0.194 µM (AC50) and the “Human NPR1 Amax (% of ANP)” value was 92.712 % of ANP.

`CC[C@H]([C@H]1CC[C@H](C(=O)O)CC1)N(C)c1nc2c(c(N[C@@H](CN3C4CC5CC(C4)CC3C5)c3cnn(C)c3)n1)C[C@H](c1ccccc1)CC2` [Compound 98, (1R,4r)-4-((R)-1-(((R)-4-(((R)-2-((1R,3R,5R,7R)-2-azaadamantan-2-yl)-1-(1-methyl-1H-pyrazol-4-yl)ethyl)amino)-6-phenyl-5,6,7,8-tetrahydroquinazolin-2-yl)(methyl)amino)propyl)cyclohexane-1-carboxylic acid]: the half-maximal activity concentration (AC50) on monkey NPR1 (setting [1]) stood at 0.179 µM. The “Monkey NPR1 Amax (% of ANP)” value at monkey NPR1 (monkey NPR1 CHO-K1 cells) was 105.533 % of ANP. Further, at human NPR1, the half-maximal activity concentration (AC50) turned out to be 0.346 µM and the “Human NPR1 Amax (% of ANP)” value was 100.756 % of ANP.

As for `CC[C@@H](Nc1nc2c(c(N[C@@H](CN3CCCC4(CCC4)C3)c3cnn(CC)c3)n1)C[C@H](c1ccccc1)CC2)[C@H]1CC[C@H](C(=O)O)CC1` [Compound 126, (1R,4r)-4-((R)-1-(((R)-4-(((R)-1-(1-ethyl-1H-pyrazol-4-yl)-2-(6-azaspiro[3.5]nonan-6-yl)ethyl)amino)-6-phenyl-5,6,7,8-tetrahydroquinazolin-2-yl)amino)propyl)cyclohexane-1-carboxylic acid], the values for the concentration at half-maximal activity (AC50) at monkey NPR1 (setting [1]) and on human NPR1 were 0.452 µM and 0.62 µM, respectively. Further, the “Monkey NPR1 Amax (% of ANP)” value at monkey NPR1 (monkey NPR1 CHO-K1 cells) is 102.477 % of ANP. In addition, the “Human NPR1 Amax (% of ANP)” value at human NPR1 is on record as 98.906 % of ANP.
